# Test results taken from US8940897B2, “1,3,4-oxadiazole and 1,3,4-thiadiazole β-lactamase inhibitors” (priority 2012, dated 2015).
# Structures can show the parent of a compound that is named as a salt.
# Legend:
# [1] = test system: bacterial strains that express the class D cephalosporinase OXA-15; test: Synergy MIC / standard BLI potentiation MIC assay, strains expressing OXA-15;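 further: more active means a lower MIC or sMIC than Avibactam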; format: cell-based, E. coli; conditions: in the presence of a β-lactam; comparator Avibactam (CCC)
# In short: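 CLSI broth microdilution in CAMHB, ~10^5 CFU/mL, 18–20 h at 37 °C with aeration; engineered E. coli kept on 25 μg/mL tetracycline. Potentiation: β-lactam 128–0.13 μg/mL with BLI fixed at 4 μg/mL; synergy MIC: BLI serially diluted with fixed β-lactam. MIC is the lowest concentration without visible turbidity.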
# [2] = test system: bacterial strains that express KPC β-lactamases; test: Synergy MIC / standard BLI potentiation MIC assay, strains expressing KPC β-lactamases; format: cell-based; conditions: for at least one KPC strain and/or a better spectrum of activity against KPC strains than Avibactam; in the presence of a β-lactam
# Experimental: Unless otherwise indicated, the activity of the BLI compounds can be described by the MIC value obtained from a Synergy MIC assay or a BLI potentiation assay (e.g as described herein), both of which are run in the presence of a β-lactam.
# The experimental protocol was performed according to Clinical and Laboratory Standards Institute (CLSI) guidelines with modifications as described below (CLSI guidelines can be derived from the CLSI document M07-A9 published in January 2012: “Methods for Dilution Antimicrobial Susceptibility Tests for Bacteria That Grow Aerobically; Approved Standard-Ninth Edition”).
# To prepare for MIC testing, frozen glycerol stocks of clinical isolates (Klebsiella pneumoniae, Eschericia coli, Enterobacter spp, Citrobacter spp, or Pseudomonas aeruginosa) were used to streak for isolated colonies on rich, non-selective, tryptic soy agar containing 5% sheep's blood (TSAB). Frozen glycerol stocks of laboratory engineered, isogenic E. coli strains, which contain cloned β-lactamase expressing plasmids were used to streak for isolated colonies on rich, selective LB agar supplemented with 25 μg/mL tetracycline to maintain the plasmid. All strains were incubated at 37° C. for 18-24 hrs.
# On the day of testing, primary cultures were started by scraping off 5-10 colonies from the TSAB plates containing clinical strains or the tetracycline supplemented LB plates containing engineered strains. The clinical strain material was suspended in ˜5 mL of cation adjusted Mueller Hinton Broth (CAMHB) in 14 mL culture tubes. The engineered strain material was suspended in CAMHB (supplemented with 25 μg/mL tetracycline) in 14 mL culture tubes. All strains were incubated at 37° C. with aeration (200 rpm) for ˜2 hrs until the optical density at 600 nm (OD600) was ≧0.1.
# The two compound components of the assay were each diluted in CAMHB and added to the 96-well broth microdilution assay plates. 50 μL of the β-lactam was added to each well of the assay plate in 2-fold dilutions with final concentrations ranging from 128 to 0.13 μg/mL. 25 μL of the BLI compound was added to all wells in the broth microdilution plates at a final concentration of 4 μg/mL. Inoculum cultures were prepared by standardizing the primary cultures to OD600=0.1 and then adding 20 μL of the adjusted primary culture per 1 mL CAMHB for clinical strains or CAMHB (supplemented with tetracycline at 100 μg/mL) for engineered strains, so that the final inoculum density was ˜10^5 colony forming units per milliliter. Diluted inoculum cultures were used to inoculate 25 μl, per well in 96-well broth microdilution assay plates. The final volume of each well was 100 μL and contained a β-lactam at different concentrations, a BLIcompound at 4 μg/mL concentration, the bacterial culture at an OD600 of approximately 0.001 and when necessary tetracycline at 25 μg/mL.
# Plates were incubated for 18-20 hours at 37° C. with aeration (200 rpm). Following incubation, growth was confirmed visually placing plates over a viewing apparatus (stand with a mirror underneath) and then OD600 was measured using a SpectraMax 340PC384 plate reader (Molecular Devices, Sunnyvale, Calif.). Growth was defined as turbidity that could be detected with the naked eye or achieving minimum OD600 of 0.1. MIC values were defined as the lowest concentration producing no visible turbidity.
# The synergy MIC (sMIC) assay determines the concentration of the BLI required to potentiate the activity of a fixed concentration of a β-lactam antibiotic against β-lactamase producing bacterial strains. The experimental protocol was performed according to Clinical and Laboratory Standards Institute (CLSI) guidelines with modifications as described below (CLSI guidelines can be derived from the CLSI document M07-A9 published in January 2012: “Methods for Dilution Antimicrobial Susceptibility Tests for Bacteria That Grow Aerobically; Approved Standard-Ninth Edition”). […]
Compound,activity against bacterial strains that express OXA-15 β-lactamase compared with Avibactam [1],activity against bacterial strains that express KPC β-lactamase compared with Avibactam [2]
"O=C1N2C[C@@H](CC[C@H]2c2nnc(CCNC3CNC3)o2)N1OS(=O)(=O)O [Compound 745, (2S,5R)-2-(5-(2-(azetidin-3-ylamino)ethyl)-1,3,4-oxadiazol-2-yl)-7-oxo-1,6-diazabicyclo[3.2.1]octan-6-yl hydrogen sulfate]",more active than Avibactam,more active than Avibactam
"N=C(N)N1CC(NCc2nnc([C@@H]3CC[C@@H]4CN3C(=O)N4OS(=O)(=O)O)o2)C1 [Compound 746, (2S,5R)-2-(5-(((1-carbamimidoylazetidin-3-yl)amino)methyl)-1,3,4-oxadiazol-2-yl)-7-oxo-1,6-diazabicyclo[3.2.1]octan-6-yl hydrogen sulfate]",more active than Avibactam,more active than Avibactam
"N=C(N)N[C@H]1C[C@@H](c2nnc([C@@H]3CC[C@@H]4CN3C(=O)N4OS(=O)(=O)O)o2)C1 [Compound 749, (2S,5R)-2-(5-((1s,3R)-3-guanidinocyclobutyl)-1,3,4-oxadiazol-2-yl)-7-oxo-1,6-diazabicyclo[3.2.1]octan-6-yl hydrogen sulfate]",more active than Avibactam,more active than Avibactam
"O=C1N2C[C@@H](CC[C@H]2c2nnc(C3CC4(CNC4)C3)o2)N1OS(=O)(=O)O [Compound 750, (2S,5R)-2-(5-(2-azaspiro[3.3]heptan-6-yl)-1,3,4-oxadiazol-2-yl)-7-oxo-1,6-diazabicyclo[3.2.1]octan-6-yl hydrogen sulfate]",more active than Avibactam,more active than Avibactam
"N[C@H]1C[C@H](Cc2nnc([C@@H]3CC[C@@H]4CN3C(=O)N4OS(=O)(=O)O)o2)C1 [Compound 751, (2S,5R)-2-(5-(((1r,3S)-3-aminocyclobutyl)methyl)-1,3,4-oxadiazol-2-yl)-7-oxo-1,6-diazabicyclo[3.2.1]octan-6-yl hydrogen sulfate]",more active than Avibactam,more active than Avibactam
"N=C(N)NC1CC(Cc2nnc([C@@H]3CC[C@@H]4CN3C(=O)N4OS(=O)(=O)O)o2)C1 (stereo partly drawn) [Compound 752, (2S,5R)-2-(5-((3-guanidinocyclobutyl)methyl)-1,3,4-oxadiazol-2-yl)-7-oxo-1,6-diazabicyclo[3.2.1]octan-6-yl hydrogen sulfate]",more active than Avibactam,more active than Avibactam
"N[C@H]1C[C@H](CCc2nnc([C@@H]3CC[C@@H]4CN3C(=O)N4OS(=O)(=O)O)o2)C1 [Compound 753, (2S,5R)-2-(5-(2-((1r,3R)-3-aminocyclobutyl)ethyl)-1,3,4-oxadiazol-2-yl)-7-oxo-1,6-diazabicyclo[3.2.1]octan-6-yl hydrogen sulfate]",more active than Avibactam,more active than Avibactam
"N[C@H]1C[C@@H](CCc2nnc([C@@H]3CC[C@@H]4CN3C(=O)N4OS(=O)(=O)O)o2)C1 [Compound 754, (2S,5R)-2-(5-(2-((1s,3S)-3-aminocyclobutyl)ethyl)-1,3,4-oxadiazol-2-yl)-7-oxo-1,6-diazabicyclo[3.2.1]octan-6-yl hydrogen sulfate]",more active than Avibactam,more active than Avibactam
"NC1CC(NCc2nnc([C@@H]3CC[C@@H]4CN3C(=O)N4OS(=O)(=O)O)o2)C1 (stereo partly drawn) [Compound 755, (2S,5R)-2-(5-(((3-aminocyclobutyl)amino)methyl)-1,3,4-oxadiazol-2-yl)-7-oxo-1,6-diazabicyclo[3.2.1]octan-6-yl hydrogen sulfate]",more active than Avibactam,more active than Avibactam
"N[C@H]1C[C@@H](NCc2nnc([C@@H]3CC[C@@H]4CN3C(=O)N4OS(=O)(=O)O)o2)C1 [Compound 756, (2S,5R)-2-(5-((((1s,3R)-3-aminocyclobutyl)amino)methyl)-1,3,4-oxadiazol-2-yl)-7-oxo-1,6-diazabicyclo[3.2.1]octan-6-yl hydrogen sulfate]",more active than Avibactam,more active than Avibactam
"O=C1N2C[C@@H](CC[C@H]2c2nnc([C@H]3CCNC3)o2)N1OS(=O)(=O)O [Compound 758, (2S,5R)-7-oxo-2-(5-((S)-pyrrolidin-3-yl)-1,3,4-oxadiazol-2-yl)-1,6-diazabicyclo[3.2.1]octan-6-yl hydrogen sulfate]",more active than Avibactam,more active than Avibactam
"O=C1N2C[C@@H](CC[C@H]2c2nnc([C@@H]3CCNC3)o2)N1OS(=O)(=O)O [Compound 759, (2S,5R)-7-oxo-2-(5-((R)-pyrrolidin-3-yl)-1,3,4-oxadiazol-2-yl)-1,6-diazabicyclo[3.2.1]octan-6-yl hydrogen sulfate]",more active than Avibactam,more active than Avibactam
"N[C@@H]1CN[C@H](c2nnc([C@@H]3CC[C@@H]4CN3C(=O)N4OS(=O)(=O)O)o2)C1 [Compound 760, (2S,5R)-2-(5-((2S,4S)-4-aminopyrrolidin-2-yl)-1,3,4-oxadiazol-2-yl)-7-oxo-1,6-diazabicyclo[3.2.1]octan-6-yl hydrogen sulfate]",more active than Avibactam,more active than Avibactam
"N[C@H]1CN[C@@H](c2nnc([C@@H]3CC[C@@H]4CN3C(=O)N4OS(=O)(=O)O)o2)C1 [Compound 761, (2S,5R)-2-(5-((2R,4R)-4-aminopyrrolidin-2-yl)-1,3,4-oxadiazol-2-yl)-7-oxo-1,6-diazabicyclo[3.2.1]octan-6-yl hydrogen sulfate]",more active than Avibactam,more active than Avibactam
"N[C@H]1CN[C@H](c2nnc([C@@H]3CC[C@@H]4CN3C(=O)N4OS(=O)(=O)O)o2)C1 [Compound 762, (2S,5R)-2-(5-((2S,4R)-4-aminopyrrolidin-2-yl)-1,3,4-oxadiazol-2-yl)-7-oxo-1,6-diazabicyclo[3.2.1]octan-6-yl hydrogen sulfate]",more active than Avibactam,more active than Avibactam
